Laboratory results reported in patent publication US9611249B2, “1H-indazole-3-carboxamide compounds as glycogen synthase kinase 3 beta inhibitors” (AZIENDE CHIMICHE RIUNITE ANGELINI FRANCESCO A.C.R.A.F. …, priority 2012, dated 2017).

Columns and labels:
Type in all cases: biochemical
EphA4 kinase (h) = EphA4 kinase (h) (Homo sapiens (Human), UniProt P54764); experiment: Kinase selectivity panel: EphA4 kinase (h); settings: 10 μM in duplicate, read-out: % inhibition of control values
Procedure: (§1) (a) Compounds 1 and 2 were tested against a panel of 60 kinases in order to assess their selectivity. The assays were chosen taking into consideration the diversity of assay families.
(§2) Tested kinases were representative of following kinase sub-families: • protein-serine/threonine kinases; • protein-tyrosine kinases; • other kinases; and • atypical kinases.
(§3) Human recombinant kinases were incubated in the presence of specific peptide substrates plus ATP for different times (10, 15, 30, 60 or 90 minutes) at 22° C. Phosphorylated substrate was detected by LANCE or HTRF technology (CISBIO, MA, USA). The compounds were tested at 10 μM in duplicate.
(§4) The results are expressed as a percentage of inhibition of control specific activity obtained in the presence of the test compounds and are reported in the following Table 5.
(§5) (b) Compounds 3, 8, 29 and 31 were tested against the same panel of 60 kinases under the same conditions described above for compounds 1 and 2.
(§6) The results are expressed as a percent of inhibition of control specific activity obtained in the presence of the test compounds and are reported in the following Table 6.

EphB2 kinase (h) = EphB2 kinase (h) (Homo sapiens (Human), UniProt P29323); experiment: Kinase selectivity panel: EphB2 kinase (h); settings: 10 μM in duplicate, read-out: % inhibition of control values
EphB2 kinase (h), sequence (P29323 19-1055): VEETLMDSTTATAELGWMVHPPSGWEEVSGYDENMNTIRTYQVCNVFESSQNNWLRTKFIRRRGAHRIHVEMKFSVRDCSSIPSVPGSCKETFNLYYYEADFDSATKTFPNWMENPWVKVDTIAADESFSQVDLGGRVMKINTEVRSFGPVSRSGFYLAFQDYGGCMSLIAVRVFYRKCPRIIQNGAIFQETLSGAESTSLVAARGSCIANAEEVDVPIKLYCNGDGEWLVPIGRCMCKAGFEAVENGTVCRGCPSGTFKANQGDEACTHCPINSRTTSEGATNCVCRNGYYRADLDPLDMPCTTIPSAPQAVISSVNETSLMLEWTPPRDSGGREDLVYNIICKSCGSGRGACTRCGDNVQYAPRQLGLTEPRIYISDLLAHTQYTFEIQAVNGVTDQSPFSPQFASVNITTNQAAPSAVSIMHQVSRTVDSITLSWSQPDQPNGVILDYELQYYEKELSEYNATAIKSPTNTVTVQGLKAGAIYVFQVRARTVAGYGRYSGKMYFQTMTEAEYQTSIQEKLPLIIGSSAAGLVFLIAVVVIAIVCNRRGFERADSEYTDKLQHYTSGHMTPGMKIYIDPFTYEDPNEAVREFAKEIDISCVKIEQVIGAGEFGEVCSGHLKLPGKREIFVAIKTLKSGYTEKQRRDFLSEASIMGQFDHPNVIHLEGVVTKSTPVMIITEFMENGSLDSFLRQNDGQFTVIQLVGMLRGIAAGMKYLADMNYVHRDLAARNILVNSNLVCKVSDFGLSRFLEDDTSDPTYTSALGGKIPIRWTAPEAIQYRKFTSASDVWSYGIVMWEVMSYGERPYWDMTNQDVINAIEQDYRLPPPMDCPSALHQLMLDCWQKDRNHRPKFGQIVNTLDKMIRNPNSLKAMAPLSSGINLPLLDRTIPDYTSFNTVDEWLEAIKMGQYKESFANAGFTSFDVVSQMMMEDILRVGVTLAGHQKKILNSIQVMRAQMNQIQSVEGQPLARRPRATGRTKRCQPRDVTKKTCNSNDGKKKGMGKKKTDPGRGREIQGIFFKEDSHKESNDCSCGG
Procedure: as §1, §2, §3, §4, §5, §6

EphB4 kinase (h) = EphB4 kinase (h) (Homo sapiens (Human), UniProt P54760); experiment: Kinase selectivity panel: EphB4 kinase (h); settings: 10 μM in duplicate, read-out: % inhibition of control values
Procedure: as §1, §2, §3, §4, §5, §6

FGFR4 kinase (h) = FGFR4 kinase (h) (Homo sapiens (Human), UniProt P22455); experiment: Kinase selectivity panel: FGFR4 kinase (h); settings: 10 μM in duplicate, read-out: % inhibition of control values
FGFR4 kinase (h), sequence (P22455 22-802): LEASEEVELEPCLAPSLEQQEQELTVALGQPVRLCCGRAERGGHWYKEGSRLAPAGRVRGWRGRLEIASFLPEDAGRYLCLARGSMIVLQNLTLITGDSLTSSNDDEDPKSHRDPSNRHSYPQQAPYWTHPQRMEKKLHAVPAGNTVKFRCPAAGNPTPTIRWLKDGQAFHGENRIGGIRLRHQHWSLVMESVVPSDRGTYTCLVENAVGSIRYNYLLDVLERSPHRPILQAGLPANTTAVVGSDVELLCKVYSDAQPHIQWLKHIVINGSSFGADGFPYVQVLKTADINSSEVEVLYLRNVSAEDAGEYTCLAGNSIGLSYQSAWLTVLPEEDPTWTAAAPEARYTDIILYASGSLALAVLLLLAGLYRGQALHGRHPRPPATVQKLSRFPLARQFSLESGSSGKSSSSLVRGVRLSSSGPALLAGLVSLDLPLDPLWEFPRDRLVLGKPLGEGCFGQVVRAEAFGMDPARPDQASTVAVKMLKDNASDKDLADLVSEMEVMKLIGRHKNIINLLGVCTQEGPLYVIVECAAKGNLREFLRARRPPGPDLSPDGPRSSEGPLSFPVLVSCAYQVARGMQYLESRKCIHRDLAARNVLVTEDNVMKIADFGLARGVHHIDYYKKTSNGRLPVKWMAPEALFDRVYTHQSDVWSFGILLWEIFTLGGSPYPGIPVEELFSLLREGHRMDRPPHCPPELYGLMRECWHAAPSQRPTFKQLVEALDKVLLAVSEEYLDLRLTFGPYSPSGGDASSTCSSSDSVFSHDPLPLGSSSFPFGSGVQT
Procedure: as §1, §2, §3, §4, §5, §6

IRK (h) (InsR) = IRK (h) (InsR) (Homo sapiens (Human), UniProt P06213); experiment: Kinase selectivity panel: IRK (h) (InsR); settings: 10 μM in duplicate, read-out: % inhibition of control values
Procedure: as §1, §2, §3, §4, §5, §6

Ret kinase (h) = Ret kinase (h) (Homo sapiens (Human), UniProt P07949); experiment: Kinase selectivity panel: Ret kinase (h); settings: 10 μM in duplicate, read-out: % inhibition of control values
Procedure: as §1, §2, §3, §4, §5, §6

TRKA (h) = TRKA (h) (Homo sapiens (Human), UniProt P04629); experiment: Kinase selectivity panel: TRKA (h); settings: 10 μM in duplicate, read-out: % inhibition of control values
Procedure: as §1, §2, §3, §4, §5, §6

Abl kinase (h) = Abl kinase (h) (Homo sapiens (Human), UniProt P00519); experiment: Kinase selectivity panel: Abl kinase (h); settings: 10 μM in duplicate, read-out: % inhibition of control values
Procedure: as §1, §2, §3, §4, §5, §6

Fyn kinase (h) = Fyn kinase (h) (Homo sapiens (Human), UniProt P06241); experiment: Kinase selectivity panel: Fyn kinase (h); settings: 10 μM in duplicate, read-out: % inhibition of control values
Procedure: as §1, §2, §3, §4, §5, §6

GSK3beta (h) = GSK3beta (h) (Homo sapiens (Human), UniProt P49841); experiment: Kinase selectivity panel: GSK3beta (h); settings: GSK3beta (h); 10 μM in duplicate; read-out: % inhibition of control values
GSK3beta (h), sequence (P49841 whole entry): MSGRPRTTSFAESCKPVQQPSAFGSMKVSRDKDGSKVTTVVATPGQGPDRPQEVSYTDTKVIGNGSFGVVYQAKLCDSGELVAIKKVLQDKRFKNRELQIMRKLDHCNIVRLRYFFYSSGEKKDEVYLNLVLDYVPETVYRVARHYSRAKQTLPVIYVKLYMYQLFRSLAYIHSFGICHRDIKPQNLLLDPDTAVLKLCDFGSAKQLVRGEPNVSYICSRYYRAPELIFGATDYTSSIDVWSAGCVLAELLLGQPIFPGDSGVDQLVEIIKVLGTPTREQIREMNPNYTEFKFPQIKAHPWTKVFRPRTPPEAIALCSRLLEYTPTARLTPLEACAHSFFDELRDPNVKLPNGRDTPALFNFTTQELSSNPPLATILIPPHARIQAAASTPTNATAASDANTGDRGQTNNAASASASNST
Procedure: as §1, §2, §3, §4, §6

DYRK1a (h) = DYRK1a (h) (Homo sapiens (Human), UniProt Q13627); experiment: Kinase selectivity panel: DYRK1a (h); settings: 10 μM in duplicate, read-out: % inhibition of control values
Procedure: as §1, §2, §3, §4, §5, §6

PCTAIRE1 kinase (h) = PCTAIRE1 kinase (h) (Homo sapiens (Human), UniProt Q00536); experiment: Kinase selectivity panel: PCTAIRE1 kinase (h); settings: 10 μM in duplicate, read-out: % inhibition of control values
Procedure: as §1, §2, §3, §4, §5, §6

CDK2 (h) (cycA) = CDK2 (h) (cycA) (Homo sapiens (Human), UniProt P24941); experiment: Kinase selectivity panel: CDK2 (h) (cycA); settings: 10 μM in duplicate, read-out: % inhibition of control values
Procedure: as §1, §2, §3, §4, §5, §6

CDK5/p35 (h) = CDK5/p35 (h) (Homo sapiens (Human), UniProt Q00535); experiment: Kinase selectivity panel: CDK5/p35 (h); settings: 10 μM in duplicate, read-out: % inhibition of control values
Procedure: as §1, §2, §3, §4, §5, §6

p38alpha kinase (h) = p38alpha kinase (h) (Homo sapiens (Human), UniProt Q16539); experiment: Kinase selectivity panel: p38alpha kinase (h); settings: 10 μM in duplicate, read-out: % inhibition of control values
p38alpha kinase (h), sequence (Q16539 whole entry): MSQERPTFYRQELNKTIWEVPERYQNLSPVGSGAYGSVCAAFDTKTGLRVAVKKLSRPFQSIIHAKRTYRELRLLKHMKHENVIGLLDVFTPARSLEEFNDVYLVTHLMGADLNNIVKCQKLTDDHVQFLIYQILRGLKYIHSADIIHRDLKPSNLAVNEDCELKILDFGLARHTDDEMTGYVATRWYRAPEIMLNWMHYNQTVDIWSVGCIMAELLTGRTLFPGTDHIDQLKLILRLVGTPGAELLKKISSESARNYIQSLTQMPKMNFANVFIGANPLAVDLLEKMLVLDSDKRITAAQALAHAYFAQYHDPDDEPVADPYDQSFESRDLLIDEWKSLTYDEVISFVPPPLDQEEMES
Procedure: as §1, §2, §3, §4, §5, §6

CHK1 (h) = CHK1 (h) (Homo sapiens (Human), UniProt O14757); experiment: Kinase selectivity panel: CHK1 (h); settings: 10 μM in duplicate, read-out: % inhibition of control values
Procedure: as §1, §2, §3, §4, §5, §6

DCAMKL1 (h) = DCAMKL1 (h) (Homo sapiens (Human), UniProt O15075); experiment: Kinase selectivity panel: DCAMKL1 (h); settings: 10 μM in duplicate, read-out: % inhibition of control values
Procedure: as §1, §2, §3, §4, §5, §6

Pim2 kinase (h) = Pim2 kinase (h) (Homo sapiens (Human), UniProt Q9P1W9); experiment: Kinase selectivity panel: Pim2 kinase (h); settings: 10 μM in duplicate, read-out: % inhibition of control values
Procedure: as §1, §2, §3, §4, §5, §6

MAPKAPK2 (h) = MAPKAPK2 (h) (Homo sapiens (Human), UniProt P49137); experiment: Kinase selectivity panel: MAPKAPK2 (h); settings: 10 μM in duplicate, read-out: % inhibition of control values
Procedure: as §1, §2, §3, §4, §5, §6

PhKgamma 2 (h) = PhKgamma 2 (h) (Homo sapiens (Human), UniProt P15735); experiment: Kinase selectivity panel: PhKgamma 2 (h); settings: 10 μM in duplicate, read-out: % inhibition of control values
Procedure: as §1, §2, §3, §4, §5, §6

Pim1 kinase (h) = Pim1 kinase (h) (Homo sapiens (Human), UniProt P11309); experiment: Kinase selectivity panel: Pim1 kinase (h); settings: 10 μM in duplicate, read-out: % inhibition of control values
Procedure: as §1, §2, §3, §4, §5, §6

GRK3/BARK2 (h) (ADRBK2) = GRK3/BARK2 (h) (ADRBK2) (Homo sapiens (Human), UniProt P35626); experiment: Kinase selectivity panel: GRK3/BARK2 (h) (ADRBK2); settings: 10 μM in duplicate, read-out: % inhibition of control values
Procedure: as §1, §2, §3, §4, §5, §6

Akt1/PKBalpha (h) = Akt1/PKBalpha (h) (Homo sapiens (Human), UniProt P31749); experiment: Kinase selectivity panel: Akt1/PKBalpha (h); settings: 10 μM in duplicate, read-out: % inhibition of control values
Akt1/PKBalpha (h), sequence (P31749 whole entry): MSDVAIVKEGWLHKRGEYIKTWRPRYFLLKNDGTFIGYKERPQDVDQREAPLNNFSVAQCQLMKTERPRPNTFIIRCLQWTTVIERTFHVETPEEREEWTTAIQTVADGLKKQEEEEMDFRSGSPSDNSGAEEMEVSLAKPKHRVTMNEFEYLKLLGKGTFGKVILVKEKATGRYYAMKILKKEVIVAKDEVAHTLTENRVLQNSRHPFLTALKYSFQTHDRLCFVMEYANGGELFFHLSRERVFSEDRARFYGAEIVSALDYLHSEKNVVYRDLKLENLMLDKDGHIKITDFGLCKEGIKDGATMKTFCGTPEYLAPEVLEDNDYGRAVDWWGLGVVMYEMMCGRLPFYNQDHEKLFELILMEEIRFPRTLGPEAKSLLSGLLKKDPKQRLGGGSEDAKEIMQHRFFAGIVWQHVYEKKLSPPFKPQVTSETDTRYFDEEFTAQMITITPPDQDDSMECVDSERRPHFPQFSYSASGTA
Procedure: as §1, §2, §3, §4, §5, §6

RSK2 (h) = RSK2 (h) (Homo sapiens (Human), UniProt P51812); experiment: Kinase selectivity panel: RSK2 (h); settings: 10 μM in duplicate, read-out: % inhibition of control values
Procedure: as §1, §2, §3, §4, §5, §6

PKCalpha (h) = PKCalpha (h) (Homo sapiens (Human), UniProt P17252); experiment: Kinase selectivity panel: PKCalpha (h); settings: 10 μM in duplicate, read-out: % inhibition of control values
Procedure: as §1, §2, §3, §4, §5, §6

PKCbeta 1 (h) = PKCbeta 1 (h) (Homo sapiens (Human), UniProt P05771); experiment: Kinase selectivity panel: PKCbeta 1 (h); settings: 10 μM in duplicate, read-out: % inhibition of control values
PKCbeta 1 (h), sequence (P05771 whole entry): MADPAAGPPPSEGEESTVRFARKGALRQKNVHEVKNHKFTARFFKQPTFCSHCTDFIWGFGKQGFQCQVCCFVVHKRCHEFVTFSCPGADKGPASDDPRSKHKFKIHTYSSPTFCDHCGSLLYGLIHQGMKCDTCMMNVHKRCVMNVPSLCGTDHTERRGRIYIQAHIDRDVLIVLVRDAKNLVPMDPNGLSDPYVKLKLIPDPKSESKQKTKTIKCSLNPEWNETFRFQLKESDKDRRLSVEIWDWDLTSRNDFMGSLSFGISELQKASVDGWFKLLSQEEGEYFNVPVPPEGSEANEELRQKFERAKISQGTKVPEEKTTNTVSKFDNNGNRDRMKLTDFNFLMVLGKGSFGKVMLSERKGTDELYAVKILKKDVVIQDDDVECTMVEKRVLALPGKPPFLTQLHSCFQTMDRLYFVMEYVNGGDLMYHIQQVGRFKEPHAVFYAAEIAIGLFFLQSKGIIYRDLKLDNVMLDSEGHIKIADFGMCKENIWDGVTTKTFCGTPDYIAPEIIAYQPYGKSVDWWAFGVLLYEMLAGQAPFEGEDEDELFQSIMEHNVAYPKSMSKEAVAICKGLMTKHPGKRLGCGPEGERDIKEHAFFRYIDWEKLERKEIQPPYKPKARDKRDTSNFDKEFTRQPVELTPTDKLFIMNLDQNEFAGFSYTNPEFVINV
Procedure: as §1, §2, §3, §4, §5, §6

PKCgamma (h) = PKCgamma (h) (Homo sapiens (Human), UniProt P05129); experiment: Kinase selectivity panel: PKCgamma (h); settings: 10 μM in duplicate, read-out: % inhibition of control values
Procedure: as §1, §2, §3, §4, §5, §6

CK1alpha (h) = CK1alpha (h) (Homo sapiens (Human), UniProt P48729); experiment: Kinase selectivity panel: CK1alpha (h); settings: 10 μM in duplicate, read-out: % inhibition of control values
Procedure: as §1, §2, §3, §4, §5, §6

PAK1 (h) = PAK1 (h) (Homo sapiens (Human), UniProt Q13153); experiment: Kinase selectivity panel: PAK1 (h); settings: 10 μM in duplicate, read-out: % inhibition of control values
Procedure: as §1, §2, §3, §4, §5, §6

DLK1 (h) (MAP3K12) = DLK1 (h) (MAP3K12) (Homo sapiens (Human), UniProt Q12852); experiment: Kinase selectivity panel: DLK1 (h) (MAP3K12); settings: 10 μM in duplicate, read-out: % inhibition of control values
Procedure: as §1, §2, §3, §4, §5, §6

IKKepsilon (h) (IKBKE) = IKKepsilon (h) (IKBKE) (Homo sapiens (Human), UniProt Q14164); experiment: Kinase selectivity panel: IKKepsilon (h) (IKBKE); settings: 10 μM in duplicate, read-out: % inhibition of control values
Procedure: as §1, §2, §3, §4, §5, §6

NEK7 (h) = NEK7 (h) (Homo sapiens (Human), UniProt Q8TDX7); experiment: Kinase selectivity panel: NEK7 (h); settings: 10 μM in duplicate, read-out: % inhibition of control values
NEK7 (h), sequence (Q8TDX7 whole entry): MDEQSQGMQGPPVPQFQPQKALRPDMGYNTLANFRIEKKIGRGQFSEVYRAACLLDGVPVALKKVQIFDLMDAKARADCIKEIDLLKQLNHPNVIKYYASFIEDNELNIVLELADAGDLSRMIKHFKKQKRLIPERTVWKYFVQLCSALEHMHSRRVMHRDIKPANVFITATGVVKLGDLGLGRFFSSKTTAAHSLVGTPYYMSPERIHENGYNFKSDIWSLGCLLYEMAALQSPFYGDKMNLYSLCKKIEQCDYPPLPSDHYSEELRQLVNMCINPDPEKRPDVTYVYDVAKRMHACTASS
Procedure: as §1, §2, §3, §4, §5, §6

AurB/Aur1 kinase (h) = AurB/Aur1 kinase (h) (Homo sapiens (Human), UniProt Q96GD4); experiment: Kinase selectivity panel: AurB/Aur1 kinase (h); settings: 10 μM in duplicate, read-out: % inhibition of control values
Procedure: as §1, §2, §3, §4, §5, §6

EphA4 kinase (h), sequence (P54764 20-986): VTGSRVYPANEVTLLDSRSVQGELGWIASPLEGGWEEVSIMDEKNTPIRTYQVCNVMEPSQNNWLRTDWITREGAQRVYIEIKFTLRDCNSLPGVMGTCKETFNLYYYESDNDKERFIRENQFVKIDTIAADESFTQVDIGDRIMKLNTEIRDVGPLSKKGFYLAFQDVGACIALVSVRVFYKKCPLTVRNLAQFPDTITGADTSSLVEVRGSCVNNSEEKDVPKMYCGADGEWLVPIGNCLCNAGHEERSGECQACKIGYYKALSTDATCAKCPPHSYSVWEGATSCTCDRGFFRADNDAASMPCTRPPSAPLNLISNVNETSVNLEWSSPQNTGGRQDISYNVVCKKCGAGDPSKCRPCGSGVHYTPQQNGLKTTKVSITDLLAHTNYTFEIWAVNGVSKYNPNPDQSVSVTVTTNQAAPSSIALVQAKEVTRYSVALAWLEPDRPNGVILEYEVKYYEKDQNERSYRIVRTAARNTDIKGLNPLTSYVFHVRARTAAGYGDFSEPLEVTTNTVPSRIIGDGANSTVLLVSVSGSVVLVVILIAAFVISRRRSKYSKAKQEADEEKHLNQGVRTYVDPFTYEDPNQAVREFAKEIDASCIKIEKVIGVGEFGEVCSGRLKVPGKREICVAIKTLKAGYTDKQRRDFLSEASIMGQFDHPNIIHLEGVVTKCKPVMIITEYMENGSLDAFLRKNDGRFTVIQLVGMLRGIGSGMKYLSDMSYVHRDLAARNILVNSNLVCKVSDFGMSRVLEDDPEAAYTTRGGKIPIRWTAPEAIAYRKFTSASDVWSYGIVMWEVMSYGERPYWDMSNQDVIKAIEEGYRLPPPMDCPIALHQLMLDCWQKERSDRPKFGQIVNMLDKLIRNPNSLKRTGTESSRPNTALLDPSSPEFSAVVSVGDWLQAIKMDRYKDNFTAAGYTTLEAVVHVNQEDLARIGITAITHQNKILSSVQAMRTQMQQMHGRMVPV

Row | inhibition at 10 µM (EphA4 kinase (h)) [%] | inhibition at 10 µM (EphB2 kinase (h)) [%] | inhibition at 10 µM (EphB4 kinase (h)) [%] | inhibition at 10 µM (FGFR4 kinase (h)) [%] | inhibition at 10 µM (IRK (h) (InsR)) [%] | inhibition at 10 µM (Ret kinase (h)) [%] | inhibition at 10 µM (TRKA (h)) [%] | inhibition at 10 µM (Abl kinase (h)) [%] | inhibition at 10 µM (Fyn kinase (h)) [%] | inhibition at 10 µM (GSK3beta (h)) [%] | inhibition at 10 µM (DYRK1a (h)) [%] | inhibition at 10 µM (PCTAIRE1 kinase (h)) [%] | inhibition at 10 µM (CDK2 (h) (cycA)) [%] | inhibition at 10 µM (CDK5/p35 (h)) [%] | inhibition at 10 µM (p38alpha kinase (h)) [%] | inhibition at 10 µM (CHK1 (h)) [%] | inhibition at 10 µM (DCAMKL1 (h)) [%] | inhibition at 10 µM (Pim2 kinase (h)) [%] | inhibition at 10 µM (MAPKAPK2 (h)) [%] | inhibition at 10 µM (PhKgamma 2 (h)) [%] | Compound | other results
1 | 0 | 0 | 0 | 0 | 0 | 0 | 0 | 0 | 0 | 89 | 51 | 0 | 21 | 9 | 0 | 0 | 0 | 0 | 0 | 1 | COc1ccc2[nH]nc(C(=O)NCC3CCN(CCC(=O)O)CC3)c2c1 [Compound 3] | inhibition at 10 µM (Pim1 kinase (h)): 12%; inhibition at 10 µM (GRK3/BARK2 (h) (ADRBK2)): 0%; inhibition at 10 µM (Akt1/PKBalpha (h)): 0%; inhibition at 10 µM (RSK2 (h)): 4%; inhibition at 10 µM (PKCalpha (h)): 5%; inhibition at 10 µM (PKCbeta 1 (h)): 0%; inhibition at 10 µM (PKCgamma (h)): 2%; inhibition at 10 µM (CK1alpha (h)): 0%; inhibition at 10 µM (PAK1 (h)): 0%; inhibition at 10 µM (DLK1 (h) (MAP3K12)): 0%; inhibition at 10 µM (IKKepsilon (h) (IKBKE)): 0%; inhibition at 10 µM (NEK7 (h)): 2%; inhibition at 10 µM (AurB/Aur1 kinase (h)): 0%
2 | 0 | 7 | 17 | 0 | 0 | 0 | 0 | 0 | 3 | 90 | 56 | 71 | 11 | 13 | 0 | 8 | 3 | 4 | 0 | 1 | COCCN1CCC(CNC(=O)c2n[nH]c3ccc(OC)cc23)CC1 [Compound 2, 5-methoxy-N-{[1-(2-methoxyethyl)-piperidin-4-yl]methyl}-1H-indazole-3-carboxamide] | inhibition at 10 µM (Pim1 kinase (h)): 2%; inhibition at 10 µM (GRK3/BARK2 (h) (ADRBK2)): 0%; inhibition at 10 µM (Akt1/PKBalpha (h)): 4%; inhibition at 10 µM (RSK2 (h)): 1%; inhibition at 10 µM (PKCalpha (h)): 0%; inhibition at 10 µM (PKCbeta 1 (h)): 1%; inhibition at 10 µM (PKCgamma (h)): 0%; inhibition at 10 µM (CK1alpha (h)): 12%; inhibition at 10 µM (PAK1 (h)): 0%; inhibition at 10 µM (DLK1 (h) (MAP3K12)): 0%; inhibition at 10 µM (IKKepsilon (h) (IKBKE)): 0%; inhibition at 10 µM (NEK7 (h)): 0%; inhibition at 10 µM (AurB/Aur1 kinase (h)): 6%
